melting point: 73 °C
SMILES: O=C(Cc1ccccc1Nc1c(Cl)cccc1Cl)OCCOCCO[N+](=O)[O-] [Compound IVa, 2-[2-(nitrooxy)ethoxy]ethyl {2-[(2,6-dichlorophenyl)amino]phenyl}acetate]

Source: US20090170934A1, “MANUFACTURING PROCESS FOR NO-DONATING COMPOUNDS SUCH AS NO-DONATING DICLOFENAC” (NICOX SA, priority 2002, published 2009)
